{
  "source": "paper PMC11869560",
  "about": "“Anticancer and cancer preventive activities of shogaol and curcumin from Zingiberaceae family plants in KG-1a leukemic stem cells” (BMC Complementary Medicine and Therapies, 2025)",
  "key": {"[1]": {"system": "p-Akt (S473) in KG-1a cells", "experiment": "p-Akt (S473) in KG-1a cells by Western blotting", "assay_type": "cell-based, human", "details": "IC50 concentration, 6 h", "method": "KG-1a cells (1.5 × 10^5 cells/mL) were treated with compounds or extracts at different incubation times. Then, the cells were harvested and the whole proteins were extracted using a RIPA buffer (25 mM Tris-base, pH 7.6, 0.1% SDS, 1% Triton X-100, 150 mM NaCl, and 1 mM EDTA). The protein concentration was measured using the Folin-Lowry or Bradford assay. The whole protein lysates (30 µg/lane) were then separated through 7.5% SDS-PAGE under reducing conditions and then transferred to PVDF membranes. The membranes were blocked in 5% skim milk in PBS, pH 7.4 at RT for 2 h, then, target proteins were probed with specific primary antibodies (anti-WT1, anti-CD34, anti-GAPDH, anti-cleaved caspase-3, anti-cleaved PARP, anti-phospho-Akt, anti-phospho-c-Jun, anti-phospho-SAPK/JNK, and anti-YAP/TAZ) indicated in Table S10 which diluted at a ratio of 1:1,000 in PBS, pH 7.4 at RT for 2 h. After incubation, the membranes were rinsed 6 times with 0.1% Tween-20 (Sigma-Aldrich, MA, USA) in PBS, pH 7.4 (PBS-T), each time for 5 min. […] Finally, the protein band signal was quantified by using a scan densitometer (Bio-Rad Laboratories, CA, USA). […]"}, "[2]": {"system": "cleaved caspase-3 and PARP in KG-1a cells", "experiment": "Cleaved caspase-3 and cleaved PARP in KG-1a cells by Western blotting", "assay_type": "cell-based, human", "details": "IC50 concentrations (curcumin 10 µg/mL, shogaol 3 µg/mL, nocodazole 10 ng/mL), 0–12 h", "method": "KG-1a cells (1.5 × 10^5 cells/mL) were treated with compounds or extracts at different incubation times. Then, the cells were harvested and the whole proteins were extracted using a RIPA buffer (25 mM Tris-base, pH 7.6, 0.1% SDS, 1% Triton X-100, 150 mM NaCl, and 1 mM EDTA). The protein concentration was measured using the Folin-Lowry or Bradford assay. The whole protein lysates (30 µg/lane) were then separated through 7.5% SDS-PAGE under reducing conditions and then transferred to PVDF membranes. The membranes were blocked in 5% skim milk in PBS, pH 7.4 at RT for 2 h, then, target proteins were probed with specific primary antibodies (anti-WT1, anti-CD34, anti-GAPDH, anti-cleaved caspase-3, anti-cleaved PARP, anti-phospho-Akt, anti-phospho-c-Jun, anti-phospho-SAPK/JNK, and anti-YAP/TAZ) indicated in Table S10 which diluted at a ratio of 1:1,000 in PBS, pH 7.4 at RT for 2 h. After incubation, the membranes were rinsed 6 times with 0.1% Tween-20 (Sigma-Aldrich, MA, USA) in PBS, pH 7.4 (PBS-T), each time for 5 min. The reaction was followed by HRP-conjugated secondary antibody at 1:20,000 dilution in PBS, pH 7.4 at RT for 2 h, then, the membranes were rinsed 6 times for 5 min each with PBS-T. The proteins were shown using Immobilon Forte Western HRP substrate (Millipore, MA, USA). Finally, the protein band signal was quantified by using a scan densitometer (Bio-Rad Laboratories, CA, USA)."}, "[3]": {"system": "NO production in LPS-activated RAW264.7 cells", "experiment": "NO production in LPS-activated RAW264.7 cells", "assay_type": "cell-based, mouse", "details": "IC20 concentration, 2 h pre-treatment then 1 µg/mL LPS 24 h", "method": "(§1) For the measurement of tumor necrosis factor-alpha (TNF-α) and NO, RAW264.7 cells were pre-treated with plant extracts and active compounds at a non-cytotoxic dose (IC20) (Table S9) or 1 µg/mL of dexamethasone (positive control) in a 24-well plate for 2 h. Subsequently, 1 µg/mL of lipopolysaccharide (LPS) (Cat No. 00497693, Invitrogen™, MA, USA) was added to each well, and the cells were incubated for an additional 24 h to allow sufficient time for the compounds to exert measurable anti-inflammatory effects while maintaining cell viability. Afterward, supernatants were collected, and the levels of TNF-α and NO were measured using the Mouse TNF alpha Uncoated ELISA Kit (Invitrogen™, ThermoFisher Scientific, MA, USA) and the Total Nitric Oxide Assay Kit (Invitrogen™, ThermoFisher Scientific, MA, USA), respectively, according to the manufacturer’s instructions.\n(§2) The percentage of NO or cytokine inhibitions were calculated using the following equation: […]\n(§3) where A is the level of cytokine or NO without treatment, and B is the level of cytokine or NO with treatment."}, "[4]": {"system": "TNF-α production in LPS-activated RAW264.7 cells", "experiment": "TNF-α production in LPS-activated RAW264.7 cells (ELISA)", "assay_type": "cell-based, mouse", "details": "IC20 concentration, 2 h pre-treatment then 1 µg/mL LPS 24 h", "method": "as §1, §2, §3"}, "[5]": {"system": "IL-2 production in PHA-activated PBMCs", "experiment": "IL-2 production in PHA-activated PBMCs (ELISA)", "assay_type": "cell-based, human", "details": "IC20 concentration, 2 h pre-treatment then 20 µL/mL PHA 24 h", "method": "For the measurement of interleukin-2 (IL-2), human PBMCs were pre-treated with plant extracts and active compounds at the IC20 concentration (Table S9) or 1 µg/mL of dexamethasone (positive control) in a 24-well plate for 2 h. Subsequently, 20 µL/mL of phytohemagglutinin (PHA) (Cat. No. 10576015, Thermo Fisher Scientific, MA, USA) was added to each well, and the cells were incubated for an additional 24 h. After that, supernatants were collected, and the levels of IL-2 were measured by the Human IL-2 Uncoated ELISA Kit (Invitrogen™, ThermoFisher Scientific, MA, USA), according to the manufacturer’s instructions.\nas §2, §3"}},
  "data": [
    {"smiles": "COc1cc(/C=C/C(=O)CC(=O)/C=C/c2ccc(O)c(OC)c2)ccc1O", "note": "[Curcumin, curcumin]", "values": [
      {"measurement": "p-Akt (S473) level compared to VC", "setting": "[1]", "value": "decreased"},
      {"measurement": "time to activation of cleaved caspase-3 and PARP", "setting": "[2]", "value": 6, "unit": "h"}
    ]},
    {"smiles": "CCCCC/C=C/C(=O)CCc1ccc(O)c(OC)c1", "note": "[Shogaol, shogaol]", "values": [
      {"measurement": "inhibition of NO release", "setting": "[3]", "value": "46.46 ± 3.71", "unit": "%"},
      {"measurement": "inhibition of TNF-α release", "setting": "[4]", "value": "24.41 ± 0.99", "unit": "%"},
      {"measurement": "inhibition of IL-2 release", "setting": "[5]", "value": "80.04 ± 4.82", "unit": "%"},
      {"measurement": "p-Akt (S473) level compared to VC", "setting": "[1]", "value": "decreased"},
      {"measurement": "time to activation of cleaved caspase-3 and PARP", "setting": "[2]", "value": 3, "unit": "h"}
    ]}
  ]
}
